{"source": "patent US20150359884A1", "about": "“MULTI-PHOTON ISOMERISATION OF COMBRETASTATINS AND THEIR USE IN THERAPY” (priority 2011, published 2015)", "key": {"[1]": {"tested_on": "Chinese hamster ovary (CHO) cells", "assay": "Fluorescence lifetime imaging (FLIM) of uptake and intracellular concentration in CHO cells", "method": "Both HeLa and Chinese hamster ovary (CHO) cells were obtained from the European Collection of Cell Cultures. HeLa cells were cultured in MEM medium (Gibco) containing 10% foetal calf serum, penicillin (100 units/mL), streptomycin (100 μg/mL) and glutamine (2 mM). CHO cells were cultured in DMEM (Gibco) with the same additions as for the HeLa cells. For microscopy the adherent cell cultures were grown in 35 mm diameter glass-bottom culture dishes with optical quality glass (MatTek Corporation) and incubated at 37° C. in a humidified atmosphere containing 5% CO2. Human umbilical vein endothelial cells (HUVECs) were obtained from TCS Cellworks. […]\nThe fluorescence lifetime imaging system with multiphoton excitation employed lasers for multiphoton excitation consisting of a Ti:Sapphire laser, tuneable between 700 and 1000 nm and providing ca 180 fs pulses at 76 MHz, and an optical parametric oscillator (OPO) pumped by a second Ti:Sapphire laser source. […] Using the various microscope ports it was possible to record the fluorescence in a number of ways. The fluorescence signal at one port was relayed to a spectrometer (Acton 275) and CCD setup (Andor iDUS) so that emission spectra and intensities could be recorded. […] In FLIM mode the fluorescence was isolated by a suitable narrowband interference filter (400IU25 together with BG3 (Comar)). […]"}, "[2]": {"assay": "Two-photon absorption cross section using reference fluorophore 9-chloroanthracene", "type": "physicochemical", "conditions": "at 620 nm, DCM", "text": "Cell images were overlaid using Adobe Photoshop CS3.\nPublished cross sections for two photon absorption (σ2, the probability of an absorption process or photon interaction) typically show large variations depending on the method of measurement, using either the Z-scan method or a reference fluorophore, and the power range and pulse duration of the laser used for excitation. We have attempted to determine values of σ2 for E-CA4 and E-ACA4 using a reference fluorophore. 9-Chloroanthracene (9CIA) was selected as a standard fluorophore with an appropriate fluorescence spectrum and for which 2PE cross-sections are available. The values of σ2 at 620 nm for E-CA4 and E-CA4F in DCM were determined to be 2.1±0.5 and 2.75±0.6 GM units respectively. […] Values of σ2 at 620 nm for E-ACA and E-DMAC were both 5.7±1.2. These larger values may be consistent with some charge transfer character of the excitation of these compounds."}}, "data": [{"smiles": "COc1ccc(/C=C/c2cc(OC)c(OC)c(OC)c2)cc1O", "note": "[E-CA4, (E)-1-(3′,4′,5′-Trimethoxyphenyl)-2-(4″-methoxy-3″-hydroxy-phenyl)ethene]", "values": [{"measurement": "Concentrating of the drug, factor relative to the surrounding medium", "setting": "[1]; 10 μM in the medium", "result": "25-75 times"}, {"measurement": "Intracellular distribution", "setting": "[1]; 10 μmol dm^−3, 2PE 628 nm", "result": "located mainly within the cytoplasmic region of the cell"}, {"measurement": "Two photon absorption cross section σ2", "setting": "[2]", "result": "2.1±0.5", "unit": "GM units"}]}]}
